Our source for the IC50 values is US20200405696A1, “INHIBITORS OF INDOLEAMINE 2,3-DIOXYGENASE AND/OR TRYPTOPHAN 2,3-DIOXYGENASE” (IDORSIA PHARMACEUTICALS LTD, priority 2018, published 2020).

The term IC50 denotes the concentration at which inhibition is half-maximal.

Experiment [1] concerns the target T1, Recombinant full-length human IDO1 (Homo sapiens, UniProt P14902).
T1 construct: Recombinant full-length human IDO1 with a N-terminal hexahistidine tag; hexahistidine (His6) (N); made in house; host or cells: E. coli
The experiment can be described thus: IDO1 enzymatic assay (NFK quantified by LCMS). Format: biochemical. To be noted: 2 nM enzyme, 5 μM L-tryptophan, pH6.5, 30 minutes pre-incubation at RT; mean values when measured multiple times; read-out: hIDO activity (IC50 in nM). The method in brief:
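IC50 comes from four-parameter logistic fits of duplicate data, with NFK quantified by LCMS and normalized to L-Trp-(indole-d5). Compound (0.5 nM–10 μM) was preincubated 30 min at RT with 2 nM E. coli-expressed IDO1 before a 30 min reaction with 5 μM tryptophan in pH 6.5 buffer containing ascorbate and methylene blue.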

Experiment [2] has as its target T2, Recombinant human TDO comprising amino acids 19-407 (Homo sapiens, UniProt P48775).
T2 construct: Recombinant human TDO comprising amino acids 19-407 with a N-terminal hexahistidine tag; hexahistidine (His6) (N); made in house; host or cells: E. coli
The experiment can be described thus: TDO2 enzymatic assay (NFK quantified by LCMS). The format is biochemical. To be noted: 15 nM enzyme, 200 μM L-tryptophan, pH7, 30 minutes pre-incubation at RT; mean values when measured multiple times; read-out: hTDO activity (IC50 in nM). Put shortly: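 NFK formed over 30 min at RT from 200 μM L-tryptophan was measured by LCMS, normalized to d5-tryptophan, after compound (0.5 nM–10 μM, duplicates, 0.6% DMSO) was preincubated 30 min with 15 nM recombinant His-tagged TDO 19-407 in phosphate buffer pH 7. IC50 from four-parameter logistic fit; repeats averaged.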

Structures are written as SMILES.

T2 sequence (P48775 19-406 limits assumed): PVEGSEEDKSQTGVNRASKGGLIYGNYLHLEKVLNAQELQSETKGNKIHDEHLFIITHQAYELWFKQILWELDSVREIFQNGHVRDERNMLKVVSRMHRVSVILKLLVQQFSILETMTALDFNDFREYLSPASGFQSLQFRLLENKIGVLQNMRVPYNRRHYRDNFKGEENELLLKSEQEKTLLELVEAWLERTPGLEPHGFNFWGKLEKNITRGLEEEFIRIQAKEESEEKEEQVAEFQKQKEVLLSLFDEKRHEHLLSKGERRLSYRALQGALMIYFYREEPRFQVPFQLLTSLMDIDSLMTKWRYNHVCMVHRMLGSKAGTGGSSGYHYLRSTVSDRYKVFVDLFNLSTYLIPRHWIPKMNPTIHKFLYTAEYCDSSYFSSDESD
T1 sequence (P14902 whole entry): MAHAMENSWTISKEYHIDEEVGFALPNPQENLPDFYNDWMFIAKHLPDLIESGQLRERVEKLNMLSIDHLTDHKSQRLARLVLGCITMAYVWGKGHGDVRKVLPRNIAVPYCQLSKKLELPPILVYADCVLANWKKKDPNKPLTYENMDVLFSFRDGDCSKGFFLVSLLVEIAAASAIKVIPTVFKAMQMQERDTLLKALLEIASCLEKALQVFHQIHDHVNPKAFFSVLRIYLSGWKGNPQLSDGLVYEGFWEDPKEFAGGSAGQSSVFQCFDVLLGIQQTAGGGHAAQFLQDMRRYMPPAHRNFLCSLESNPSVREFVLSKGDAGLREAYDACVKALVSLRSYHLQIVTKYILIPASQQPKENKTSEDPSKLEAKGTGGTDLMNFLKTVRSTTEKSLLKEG

Consider `Cn1cc(-n2cc(C(O)c3c(C4CC4)sc4cncn34)nn2)cn1` (racemic) [Example 43, rac-(2-Cyclopropyl-imidazo[5,1-b]thiazol-3-yl)-[1-(1-methyl-1H-pyrazol-4-yl)-1H-[1,2,3]triazol-4-yl]-methanol], for which the 50% inhibitory concentration (IC50) in experiment [1] was 95 nM; in experiment [2], more than 10200 nM.

With `CCc1sc2cncn2c1C(O)c1cn(-c2ccc(NC(=O)OC(C)(C)C)cc2F)nn1` (racemic) [Example 245, rac-(4-{4-[(2-Ethyl-imidazo[5,1-b]thiazol-3-yl)-hydroxy-methyl]-[1,2,3]triazol-1-yl}-3-fluoro-phenyl)-carbamic Acid Tert-Butyl Ester], the half-maximal inhibitory concentration (IC50) in experiment [1] was 40.8 nM; in experiment [2] it was 6810 nM.

As to `CCN(CC)S(=O)(=O)c1ccc(-n2cc(C(O)c3c(C4CC4)sc4cncn34)nn2)cc1` (racemic) [Example 238, rac-4-{4-[(2-Cyclopropyl-imidazo[5,1-b]thiazol-3-yl)-hydroxy-methyl]-[1,2,3]triazol-1-yl}-N,N-diethyl-benzenesulfonamide], the figures for the half-inhibitory concentration (IC50) in experiment [1] and in experiment [2] were 137 nM and more than 10200 nM, respectively.

Take `CC1(c2sc3cncn3c2C(O)c2cn(-c3ccc(OCCCO)c(Cl)c3)nn2)CC1` (racemic) [Example 313, rac-3-[2-Chloro-4-(4-{hydroxy-[2-(1-methyl-cyclopropyl)-imidazo[5,1-b]thiazol-3-yl]-methyl}-[1,2,3]triazol-1-yl)-phenoxy]-propan-1-ol]: the 50% inhibitory concentration (IC50) in experiment [1] was 13.7 nM; in experiment [2] it was more than 10200 nM.

`COc1ncc(-n2cc(C(O)c3c(C4CC4)sc4cncn34)nn2)cc1C` (racemic) [Example 71, rac-(2-Cyclopropyl-imidazo[5,1-b]thiazol-3-yl)-[1-(6-methoxy-5-methyl-pyridin-3-yl)-1H-[1,2,3]triazol-4-yl]-methanol]: the values for the 50% inhibitory concentration (IC50) in experiment [1] and in experiment [2] were 55.9 nM and more than 10200 nM, respectively.

For the molecule `O=C(Nc1ccc(-n2cc(C(O)c3c(C4CC4)sc4cncn34)nn2)cc1)N1CCOCC1` (racemic) [Example 104, rac-Morpholine-4-carboxylic acid (4-{4-[(2-cyclopropyl-imidazo[5,1-b]thiazol-3-yl)-hydroxy-methyl]-[1,2,3]triazol-1-yl}-phenyl)-amide], the values for the IC50 in experiment [1] and in experiment [2] were 30.6 nM and more than 10200 nM, respectively.

As to `O[C@@H](c1cn(-c2ccc(OCC3CCOCC3)c(Cl)c2)nn1)c1c(C2CC2)sc2cncn12` [Example 276, (R)-{1-[3-Chloro-4-(tetrahydro-pyran-4-ylmethoxy)-phenyl]-1H-[1,2,3]triazol-4-yl}-(2-cyclopropyl-imidazo[5,1-b]thiazol-3-yl)-methanol], the IC50 in experiment [1] is 4.63 nM; in experiment [2], more than 10200 nM.

On to `CCc1sc2cncn2c1C(O)c1cn(-c2ccc(OCCC(C)(C)O)c(Cl)c2)nn1` (racemic) [Example 302, rac-4-(2-Chloro-4-{4-[(2-ethyl-imidazo[5,1-b]thiazol-3-yl)-hydroxy-methyl]-[1,2,3]triazol-1-yl}-phenoxy)-2-methyl-butan-2-ol], for which the half-inhibitory concentration (IC50) was 6.88 nM in experiment [1] and more than 10200 nM in experiment [2].

With `OCCOCCOCCOc1ccc(-n2cc(C(O)c3c(C4CC4)sc4cncn34)nn2)cc1` (racemic) [Example 201, rac-2-{2-[2-(4-{4-[(2-Cyclopropyl-imidazo[5,1-b]thiazol-3-yl)-hydroxy-methyl]-[1,2,3]triazol-1-yl}-phenoxy)-ethoxy]-ethoxy}-ethanol], the concentration for half-maximal inhibition (IC50) in experiment [1] was 27.8 nM; in experiment [2] it was more than 10200 nM.

In the case of `CCc1sc2cncn2c1C(O)c1cn(-c2cc(Cl)c(OC)cc2F)nn1` (racemic) [Example 319, rac-[1-(5-Chloro-2-fluoro-4-methoxy-phenyl)-1H-[1,2,3]triazol-4-yl]-(2-ethyl-imidazo[5,1-b]thiazol-3-yl)-methanol], the IC50 in experiment [1] was 3.18 nM; in experiment [2], 4430 nM.

On to `CC(C)(O)COc1ccc(-n2cc([C@H](O)c3c(C4CC4)sc4cncn34)nn2)cc1` [Example 139a, 1-(4-{4-[(R)-(2-Cyclopropyl-imidazo[5,1-b]thiazol-3-yl)-hydroxy-methyl]-[1,2,3]triazol-1-yl}-phenoxy)-2-methyl-propan-2-ol], for which the IC50 in experiment [1] was 5.44 nM; in experiment [2] it was more than 10200 nM.

On to `O[C@@H](c1cnn(-c2ccccc2)c1)c1c(C2CC2)sc2cncn12` [Example 100a, (S)-(2-Cyclopropyl-imidazo[5,1-b]thiazol-3-yl)-(1-phenyl-1H-pyrazol-4-yl)-methanol], for which the half-inhibitory concentration (IC50) worked out at 17.5 nM in experiment [1] and 2450 nM in experiment [2].

`CCc1sc2cncn2c1C(O)c1cn(-c2ccc(NC(=O)OC)cc2)nn1` (racemic) [Example 49, rac-(4-{4-[(2-Ethyl-imidazo[5,1-b]thiazol-3-yl)-hydroxy-methyl]-[1,2,3]triazol-1-yl}-phenyl)-carbamic Acid Methyl Ester]: the IC50 in experiment [1] is 10.9 nM; in experiment [2], 2110 nM.

`COCCCNC(=O)c1ccc(-n2cc(C(O)c3c(C4CC4)sc4cncn34)nn2)cc1` (racemic) [Example 106, rac-4-{4-[(2-Cyclopropyl-imidazo[5,1-b]thiazol-3-yl)-hydroxy-methyl]-[1,2,3]triazol-1-yl}-N-(3-methoxy-propyl)-benzamide]: the IC50 was 19.6 nM in experiment [1] and more than 10200 nM in experiment [2].

In the case of `Cc1sc2cncn2c1C(O)c1cn(-c2ccccc2)nn1` (racemic) [Example 17, rac-(2-Methyl-imidazo[5,1-b]thiazol-3-yl)-(1-phenyl-1H-[1,2,3]triazol-4-yl)-methanol], the results for the half-inhibitory concentration (IC50) in experiment [1] and in experiment [2] were 154 nM and more than 10200 nM, respectively.

For `COc1ccc(-n2cc(C(O)c3c(-c4ccccc4F)sc4cncn34)nn2)cc1` (racemic) [Example 287, rac-[2-(2-Fluoro-phenyl)-imidazo[5,1-b]thiazol-3-yl]-[1-(4-methoxy-phenyl)-1H-[1,2,3]triazol-4-yl]-methanol], the half-inhibitory concentration (IC50) in experiment [1] came out at 88.8 nM; in experiment [2], 8670 nM.

Take `CC1(COc2ccc(-n3cc(C(O)c4c(C5CC5)sc5cncn45)nn3)cc2)COC1` (racemic) [Example 144, rac-(2-Cyclopropyl-imidazo[5,1-b]thiazol-3-yl)-{1-[4-(3-methyl-oxetan-3-ylmethoxy)-phenyl]-1H-[1,2,3]triazol-4-yl}-methanol]: the concentration for half-maximal inhibition (IC50) in experiment [1] was 11.2 nM; in experiment [2] it was more than 10200 nM.

`Cn1ncc2cccc(-n3cc(C(O)c4c(C5CC5)sc5cncn45)nn3)c21` (racemic) [Example 254, rac-(2-Cyclopropyl-imidazo[5,1-b]thiazol-3-yl)-[1-(1-methyl-1H-indazol-7-yl)-1H-[1,2,3]triazol-4-yl]-methanol]: the IC50 in experiment [1] is 38.5 nM; in experiment [2], more than 10200 nM.

Turning to `CCc1sc2cncn2c1C(O)c1cn(-c2cc(F)c(OC)cc2F)nn1` (racemic) [Example 321, rac-[1-(2,5-Difluoro-4-methoxy-phenyl)-1H-[1,2,3]triazol-4-yl]-(2-ethyl-imidazo[5,1-b]thiazol-3-yl)-methanol], the IC50 in experiment [1] is 2.13 nM; in experiment [2], 3680 nM.

On to `CCc1sc2cncn2c1C(O)c1cn(-c2ccc(OCC3CC3)cc2)nn1` (racemic) [Example 54, rac-[1-(4-Cyclopropylmethoxy-phenyl)-1H-[1,2,3]triazol-4-yl]-(2-ethyl-imidazo[5,1-b]thiazol-3-yl)-methanol], for which the results for the IC50 in experiment [1] and in experiment [2] were 12.3 nM and more than 10200 nM, respectively.
